Measured values taken from PMC12650355 (2025).

Legend:
[1] = test system: Apt2 (DNA, aptamer) ACTTCAGTGAGTTGTCCCACGGTCGGCGAGTCGGTGGTAG; test: SPR (Biacore T200), single concentration; conditions: 100 mM Na+, 5 mM K+, 2 mM Mg2+, 1 mM Ca2+ (sample diluent Buf1), diluent Buf1 pH 7.4, SA-coated CM5 chip
[2] = test system: Apt2 (DNA, aptamer) ACTTCAGTGAGTTGTCCCACGGTCGGCGAGTCGGTGGTAG; test: SPR (Biacore T200), steady-state fit; conditions: 100 mM Na+, 5 mM K+, 2 mM Mg2+, 1 mM Ca2+ (sample diluent Buf1); running buffer PBS; diluent Buf1, 20 mM Tris-HCl pH 7.4; SA-coated CM5 chip
[3] = 6.4 μM tested, running buffer PBS not restated

| binding [1, 3] | SMILES | other results |
| --- | --- | --- |
|  | CO/N=C(\C(=O)N[C@@H]1C(=O)N2C(C(=O)O)=C(COC(N)=O)CS[C@H]12)c1ccco1 | binding ([1]; 6.4 μM tested (printed CN, CXM)): no |
| no | CS(=O)(=O)c1ccc([C@@H](O)[C@@H](CF)NC(=O)C(Cl)Cl)cc1 |  |
| no | CS(=O)(=O)c1ccc([C@@H](O)[C@@H](CO)NC(=O)C(Cl)Cl)cc1 |  |
|  | O=C(N[C@H](CO)[C@H](O)c1ccc([N+](=O)[O-])cc1)C(Cl)Cl | KD [2]: 141 nM |
